What was measured:
EGFR (human) [1] = target: EGFR (human) (UniProt P00533); settings: a431
EGFR (human) [2] = target: EGFR (human) (UniProt P00533); settings: A431

Sequence of EGFR (human) (P00533 whole entry, looked up): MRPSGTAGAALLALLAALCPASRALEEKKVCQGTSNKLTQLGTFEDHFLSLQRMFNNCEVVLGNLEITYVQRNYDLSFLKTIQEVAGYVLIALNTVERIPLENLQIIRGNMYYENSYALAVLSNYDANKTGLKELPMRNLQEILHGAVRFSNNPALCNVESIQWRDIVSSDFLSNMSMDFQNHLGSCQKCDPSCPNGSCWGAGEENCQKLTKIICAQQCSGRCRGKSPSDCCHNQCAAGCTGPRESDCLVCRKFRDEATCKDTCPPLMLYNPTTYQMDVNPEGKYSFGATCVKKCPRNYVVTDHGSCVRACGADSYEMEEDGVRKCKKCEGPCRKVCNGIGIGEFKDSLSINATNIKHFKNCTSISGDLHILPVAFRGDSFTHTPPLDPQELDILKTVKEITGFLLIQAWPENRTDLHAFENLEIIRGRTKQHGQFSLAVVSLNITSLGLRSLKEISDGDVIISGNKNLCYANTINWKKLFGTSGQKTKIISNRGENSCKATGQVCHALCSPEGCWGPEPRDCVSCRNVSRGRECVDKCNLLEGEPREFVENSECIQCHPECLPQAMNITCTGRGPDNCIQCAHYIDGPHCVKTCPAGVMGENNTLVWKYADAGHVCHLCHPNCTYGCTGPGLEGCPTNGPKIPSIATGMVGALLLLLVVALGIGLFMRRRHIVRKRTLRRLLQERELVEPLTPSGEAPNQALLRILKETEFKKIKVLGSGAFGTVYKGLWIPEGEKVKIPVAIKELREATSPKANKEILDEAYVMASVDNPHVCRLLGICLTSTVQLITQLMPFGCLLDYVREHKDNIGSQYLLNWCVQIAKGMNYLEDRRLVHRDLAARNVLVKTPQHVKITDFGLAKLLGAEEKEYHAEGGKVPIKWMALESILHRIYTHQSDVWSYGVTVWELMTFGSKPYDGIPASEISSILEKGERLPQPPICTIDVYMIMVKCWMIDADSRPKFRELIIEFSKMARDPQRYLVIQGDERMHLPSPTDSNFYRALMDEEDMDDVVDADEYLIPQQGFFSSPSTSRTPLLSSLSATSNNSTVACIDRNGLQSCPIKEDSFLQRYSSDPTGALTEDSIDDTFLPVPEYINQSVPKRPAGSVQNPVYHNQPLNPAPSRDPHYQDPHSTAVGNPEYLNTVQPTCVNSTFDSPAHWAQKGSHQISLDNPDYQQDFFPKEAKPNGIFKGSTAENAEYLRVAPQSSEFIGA

Structure (SMILES) | IC50 (EGFR (human) [1]) [µM] | IC50 (EGFR (human) [2]) [µM]
c1csc(COc2ccc(Nc3ncnc4ccccc34)cc2)c1 | > 50 | > 50
c1ccc(COc2ccc(Oc3ncnc4ccccc34)cc2)cc1 | > 50 | > 50
COc1cc2ncnc(Nc3ccc(Nc4ccccc4)cc3)c2cc1OC | > 50 | 15
Clc1ccc2c(Nc3ccc(OCc4ccccc4)cc3)ncnc2c1 | 50 | > 30
Cc1cc2ncnc(Nc3ccc(OCc4ccccc4)cc3)c2cc1C | > 50 | > 30
COc1ccc2ncnc(Nc3ccc(OCc4ccccc4)cc3)c2c1 | 12 | 15
COc1cccc2ncnc(Nc3ccc(OCc4ccccc4)cc3)c12 | 28 | 11
COc1ccc2c(Nc3ccc(OCc4ccccc4)cc3)ncnc2c1 | > 50 | 65
COc1cc2nccc(Nc3ccc(N4C(=O)c5ccc(Cl)cc5C4=O)c(C)c3)c2cc1OC | > 50 | 50
O=[N+]([O-])c1ccc2ncnc(Nc3ccc(Oc4ccccc4)cc3)c2c1 | > 50 | > 50
Brc1ccc2ncnc(Nc3ccc(OCc4ccccc4)cc3)c2c1 | 29 | 10
c1ccc(COc2ccc(Nc3ccnc4ccccc34)cc2)cc1 | > 50 | > 50
COc1cc2ncnc(Nc3ccc(Oc4ccccc4)cc3)c2cc1OC | 30 | 8
COc1cc2nccc(Nc3ccc(OCc4ccccc4)cc3)c2cc1OC | > 50 | > 50
COc1cc2ncnc(Nc3ccc(OCc4ccccc4)c(OC)c3)c2cc1OC | 6.9 | 1.6
COc1cc2ncnc(Nc3ccc(OCc4ccccc4)cc3)c2cc1OC | 50 | 5
c1ccc(COc2cccc(Nc3ncnc4ccccc34)c2)cc1 | 50 | > 50
c1ccc(Oc2ccc(Nc3ccnc4ccccc34)cc2)cc1 | 31 | > 50

Source: the Kinase Knowledgebase extract (Sharma et al. 2016)
